According to PubChem BioAssay AID2060332 (Molecular Pharmacology Branch, DTP, NCI, 2025):

Tested on: LG0567-F671-PDC multi-cell spheroid viability
Assay: Anticancer human tumor LG0567-F671-PDC patient-derived lung adenocarcinoma cell line growth inhibition [IpAb]
Conditions: for IC50: curve of first compound; for viability, T/C: stronger effect = lower value
Outline: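 Multi-cell spheroids of 60% tumour cells, 25% HUVEC and 15% MSC in ultra-low-attachment U-bottom wells, treated with agents combined with ipatasertib or abemaciclib. Half-log ranges top out near clinical Cmax, or 10 microM when Cmax is unknown.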

[1] = second compound 0.1 µM, first compound 0.0316 µM
[2] = second compound 0.1 µM, first compound 0.1 µM
[3] = second compound 0.316 µM, first compound 0.0316 µM
[4] = second compound 0.316 µM, first compound 0.1 µM
[5] = second compound 1 µM, first compound 0.0316 µM
[6] = second compound 1 µM, first compound 0.1 µM
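Further: viability read after 7 days of drug exposure.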
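Wherever viability, T/C is given: 100% = DMSO vehicle control luminescence.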

**Q.** With `CC(C)n1nc(-c2ccc3oc(N)nc3c2)c2c(N)ncnc21` + CC(C)NCC(C(=O)N1CCN(c2ncnc3c2C(C)CC3O)CC1)c1ccc(Cl)cc1 as the compound, how does the IC50 (second compound 0.1 µM) read?
**A.** 0.0804 µM

**Q.** And the IC50 (second compound 0.316 µM)?
**A.** > 0.1 µM

**Q.** What about the IC50 (second compound 1 µM) of the same compound?
**A.** > 0.1 µM

**Q.** And the IC50 (second compound 3.16 µM)?
**A.** 0.0271 µM

**Q.** And the IC50 (second compound 10 µM)?
**A.** 0.0117 µM

**Q.** And the viability, T/C (second compound 0.1 µM, first compound 0.000316 µM)?
**A.** 89%

**Q.** What about the viability, T/C (second compound 0.1 µM, first compound 0.001 µM) of the same compound?
**A.** 99.4%

**Q.** What about the viability, T/C (second compound 0.1 µM, first compound 0.00316 µM) of the same compound?
**A.** 76.8%

**Q.** And the viability, T/C (second compound 0.1 µM, first compound 0.01 µM)?
**A.** 65.8%

**Q.** And the viability, T/C [1]?
**A.** 59.1%

**Q.** What about the viability, T/C [2] of the same compound?
**A.** 46.4%

**Q.** And the viability, T/C (second compound 0.316 µM, first compound 0.000316 µM)?
**A.** 76%

**Q.** What about the viability, T/C (second compound 0.316 µM, first compound 0.001 µM) of the same compound?
**A.** 76%

**Q.** And the viability, T/C (second compound 0.316 µM, first compound 0.00316 µM)?
**A.** 87%

**Q.** What about the viability, T/C (second compound 0.316 µM, first compound 0.01 µM) of the same compound?
**A.** 66.5%

**Q.** And the viability, T/C [3]?
**A.** 50.4%

**Q.** What about the viability, T/C [4] of the same compound?
**A.** 59.5%

**Q.** And the viability, T/C (second compound 1 µM, first compound 0.000316 µM)?
**A.** 70.3%

**Q.** And the viability, T/C (second compound 1 µM, first compound 0.001 µM)?
**A.** 81.3%

**Q.** And the viability, T/C (second compound 1 µM, first compound 0.00316 µM)?
**A.** 76.6%

**Q.** And the viability, T/C (second compound 1 µM, first compound 0.01 µM)?
**A.** 57%

**Q.** And the viability, T/C [5]?
**A.** 57.9%

**Q.** And the viability, T/C [6]?
**A.** 46.4%

**Q.** And the viability, T/C (second compound 3.16 µM, first compound 0.000316 µM)?
**A.** 97.2%

**Q.** What about the viability, T/C (second compound 3.16 µM, first compound 0.001 µM) of the same compound?
**A.** 71.7%

**Q.** What about the viability, T/C (second compound 3.16 µM, first compound 0.00316 µM) of the same compound?
**A.** 73%

**Q.** What about the viability, T/C (second compound 3.16 µM, first compound 0.01 µM) of the same compound?
**A.** 62.7%

**Q.** What about the viability, T/C (second compound 3.16 µM, first compound 0.0316 µM) of the same compound?
**A.** 45.5%

**Q.** What about the viability, T/C (second compound 3.16 µM, first compound 0.1 µM) of the same compound?
**A.** 39.9%

**Q.** And the viability, T/C (second compound 10 µM, first compound 0.000316 µM)?
**A.** 72.9%

**Q.** And the viability, T/C (second compound 10 µM, first compound 0.001 µM)?
**A.** 72.2%

**Q.** What about the viability, T/C (second compound 10 µM, first compound 0.00316 µM) of the same compound?
**A.** 63.9%

**Q.** And the viability, T/C (second compound 10 µM, first compound 0.01 µM)?
**A.** 53.8%

**Q.** And the viability, T/C (second compound 10 µM, first compound 0.0316 µM)?
**A.** 37%

**Q.** And the viability, T/C (second compound 10 µM, first compound 0.1 µM)?
**A.** 43%

**Q.** With `CC(=O)c1c(C)c2cnc(Nc3ccc(N4CCNCC4)cn3)nc2n(C2CCCC2)c1=O` + CCN1CCN(Cc2ccc(Nc3ncc(F)c(-c4cc(F)c5nc(C)n(C(C)C)c5c4)n3)nc2)CC1 as the compound, how does the IC50 (second compound 0.01 µM) read?
**A.** > 0.3 µM

**Q.** What about the IC50 (second compound 0.0316 µM) of the same compound?
**A.** > 0.3 µM

**Q.** What about the IC50 (second compound 0.1 µM) of the same compound?
**A.** > 0.3 µM

**Q.** And the IC50 (second compound 0.316 µM)?
**A.** > 0.3 µM

**Q.** What about the IC50 (second compound 1 µM) of the same compound?
**A.** > 0.3 µM

**Q.** What about the viability, T/C (second compound 0.01 µM, first compound 0.000949 µM) of the same compound?
**A.** 74.8%

**Q.** And the viability, T/C (second compound 0.01 µM, first compound 0.003 µM)?
**A.** 93.4%

**Q.** And the viability, T/C (second compound 0.01 µM, first compound 0.00949 µM)?
**A.** 87.8%

**Q.** What about the viability, T/C (second compound 0.01 µM, first compound 0.03 µM) of the same compound?
**A.** 62.5%

**Q.** And the viability, T/C (second compound 0.01 µM, first compound 0.0949 µM)?
**A.** 82.8%

**Q.** And the viability, T/C (second compound 0.01 µM, first compound 0.3 µM)?
**A.** 69.2%

**Q.** What about the viability, T/C (second compound 0.0316 µM, first compound 0.000949 µM) of the same compound?
**A.** 83%

**Q.** What about the viability, T/C (second compound 0.0316 µM, first compound 0.003 µM) of the same compound?
**A.** 65.1%

**Q.** What about the viability, T/C (second compound 0.0316 µM, first compound 0.00949 µM) of the same compound?
**A.** 94.1%

**Q.** What about the viability, T/C (second compound 0.0316 µM, first compound 0.03 µM) of the same compound?
**A.** 75.2%

**Q.** What about the viability, T/C (second compound 0.0316 µM, first compound 0.0949 µM) of the same compound?
**A.** 55.4%

**Q.** What about the viability, T/C (second compound 0.0316 µM, first compound 0.3 µM) of the same compound?
**A.** 57.4%

**Q.** And the viability, T/C (second compound 0.1 µM, first compound 0.000949 µM)?
**A.** 84.4%

**Q.** And the viability, T/C (second compound 0.1 µM, first compound 0.003 µM)?
**A.** 71.2%

**Q.** And the viability, T/C (second compound 0.1 µM, first compound 0.00949 µM)?
**A.** 62.6%

**Q.** And the viability, T/C (second compound 0.1 µM, first compound 0.03 µM)?
**A.** 80.2%

**Q.** And the viability, T/C (second compound 0.1 µM, first compound 0.0949 µM)?
**A.** 60.3%

**Q.** And the viability, T/C (second compound 0.1 µM, first compound 0.3 µM)?
**A.** 51.2%

**Q.** What about the viability, T/C (second compound 0.316 µM, first compound 0.000949 µM) of the same compound?
**A.** 60.7%

**Q.** What about the viability, T/C (second compound 0.316 µM, first compound 0.003 µM) of the same compound?
**A.** 51.7%

**Q.** And the viability, T/C (second compound 0.316 µM, first compound 0.00949 µM)?
**A.** 67.1%

**Q.** What about the viability, T/C (second compound 0.316 µM, first compound 0.03 µM) of the same compound?
**A.** 49.4%

**Q.** What about the viability, T/C (second compound 0.316 µM, first compound 0.0949 µM) of the same compound?
**A.** 56.8%

**Q.** And the viability, T/C (second compound 0.316 µM, first compound 0.3 µM)?
**A.** 50.7%

**Q.** What about the viability, T/C (second compound 1 µM, first compound 0.000949 µM) of the same compound?
**A.** 53.4%

**Q.** And the viability, T/C (second compound 1 µM, first compound 0.003 µM)?
**A.** 76.6%

**Q.** What about the viability, T/C (second compound 1 µM, first compound 0.00949 µM) of the same compound?
**A.** 69%

**Q.** What about the viability, T/C (second compound 1 µM, first compound 0.03 µM) of the same compound?
**A.** 65.5%

**Q.** What about the viability, T/C (second compound 1 µM, first compound 0.0949 µM) of the same compound?
**A.** 63.7%

**Q.** And the viability, T/C (second compound 1 µM, first compound 0.3 µM)?
**A.** 54.2%

**Q.** With `Cn1ncc(Cl)c1-c1cc(C(=O)NC(CN)Cc2cccc(F)c2)sc1Cl` (stereo not given) + CCN1CCN(Cc2ccc(Nc3ncc(F)c(-c4cc(F)c5nc(C)n(C(C)C)c5c4)n3)nc2)CC1 as the compound, how does the IC50 (second compound 0.01 µM) read?
**A.** 1.85 µM

**Q.** What about the IC50 (second compound 0.0316 µM) of the same compound?
**A.** 1.19 µM

**Q.** And the IC50 (second compound 0.1 µM)?
**A.** 0.47 µM

**Q.** And the IC50 (second compound 0.316 µM)?
**A.** < 0.0316 µM

**Q.** What about the IC50 (second compound 1 µM) of the same compound?
**A.** 0.226 µM

**Q.** And the viability, T/C (second compound 0.01 µM, first compound 0.0316 µM)?
**A.** 88.8%

**Q.** And the viability, T/C (second compound 0.01 µM, first compound 0.1 µM)?
**A.** 68%

**Q.** And the viability, T/C (second compound 0.01 µM, first compound 0.316 µM)?
**A.** 50.2%

**Q.** What about the viability, T/C (second compound 0.01 µM, first compound 1 µM) of the same compound?
**A.** 61.4%

**Q.** What about the viability, T/C (second compound 0.01 µM, first compound 3.16 µM) of the same compound?
**A.** 49.9%

**Q.** What about the viability, T/C (second compound 0.01 µM, first compound 10 µM) of the same compound?
**A.** 0.15%

**Q.** And the viability, T/C (second compound 0.0316 µM, first compound 0.0316 µM)?
**A.** 57.7%

**Q.** And the viability, T/C (second compound 0.0316 µM, first compound 0.1 µM)?
**A.** 53.9%

**Q.** What about the viability, T/C (second compound 0.0316 µM, first compound 0.316 µM) of the same compound?
**A.** 49.9%

**Q.** What about the viability, T/C (second compound 0.0316 µM, first compound 1 µM) of the same compound?
**A.** 54.2%

**Q.** What about the viability, T/C (second compound 0.0316 µM, first compound 3.16 µM) of the same compound?
**A.** 28.6%

**Q.** And the viability, T/C (second compound 0.0316 µM, first compound 10 µM)?
**A.** 0.13%

**Q.** What about the viability, T/C [1] of the same compound?
**A.** 74.8%

**Q.** What about the viability, T/C [2] of the same compound?
**A.** 51.4%

**Q.** What about the viability, T/C (second compound 0.1 µM, first compound 0.316 µM) of the same compound?
**A.** 52.7%

**Q.** And the viability, T/C (second compound 0.1 µM, first compound 1 µM)?
**A.** 45.8%

**Q.** And the viability, T/C (second compound 0.1 µM, first compound 3.16 µM)?
**A.** 27.6%

**Q.** And the viability, T/C (second compound 0.1 µM, first compound 10 µM)?
**A.** 0.13%

**Q.** And the viability, T/C [3]?
**A.** 42.4%

**Q.** And the viability, T/C [4]?
**A.** 51.4%

**Q.** And the viability, T/C (second compound 0.316 µM, first compound 0.316 µM)?
**A.** 57.9%

**Q.** And the viability, T/C (second compound 0.316 µM, first compound 1 µM)?
**A.** 33%

**Q.** And the viability, T/C (second compound 0.316 µM, first compound 3.16 µM)?
**A.** 30.9%

**Q.** What about the viability, T/C (second compound 0.316 µM, first compound 10 µM) of the same compound?
**A.** 0.14%

**Q.** What about the viability, T/C [5] of the same compound?
**A.** 59%

**Q.** What about the viability, T/C [6] of the same compound?
**A.** 51.8%

**Q.** What about the viability, T/C (second compound 1 µM, first compound 0.316 µM) of the same compound?
**A.** 47.2%

**Q.** And the viability, T/C (second compound 1 µM, first compound 1 µM)?
**A.** 37.4%

**Q.** And the viability, T/C (second compound 1 µM, first compound 3.16 µM)?
**A.** 30%

**Q.** What about the viability, T/C (second compound 1 µM, first compound 10 µM) of the same compound?
**A.** 0.19%
